Holding throughout (test): relative viability (nuclei count vs DMSO), 5 days (fraction); higher = more cells survive
Compound in the assay “Metformin + Foretinib”: CN(C)C(=N)NC(=N)N [Metformin] + COc1cc2c(Oc3ccc(NC(=O)C4(C(=O)Nc5ccc(F)cc5)CC4)cc3F)ccnc2cc1OCCCN1CCOCC1 [Foretinib] (partner 0.25 µM)
In a few lines:
(§1)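 Values are medians from duplicate plates. Each reflects relative viability, defined as the nuclei count of treated wells over that of vehicle wells. Lung cancer cell lines in 1536-well plates were pin-tool dosed one day after seeding with one drug alone or with a fixed anchor-drug dose plus five library-drug doses (not always all listed) in √10 steps, then fixed, stained and imaged at 4× after 5 days.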

Compound in the assay “Metformin + Alpelisib”: CN(C)C(=N)NC(=N)N [Metformin] + Cc1nc(NC(=O)N2CCC[C@H]2C(N)=O)sc1-c1ccnc(C(C)(C)C(F)(F)F)c1 [Alpelisib] (partner 2 µM)
In a few lines:
as §1

Compound in the assay “Metformin + Decitabine”: CN(C)C(=N)NC(=N)N [Metformin] + Nc1ncn([C@H]2C[C@H](O)[C@@H](CO)O2)c(=O)n1 [Decitabine] (partner 2 µM)
In a few lines:
as §1

Compound in the assay “Apatinib + Lapatinib”: N#CC1(c2ccc(NC(=O)c3cccnc3NCc3ccncc3)cc2)CCCC1 [Apatinib] + CS(=O)(=O)CCNCc1ccc(-c2ccc3ncnc(Nc4ccc(OCc5cccc(F)c5)c(Cl)c4)c3c2)o1 [Lapatinib] (partner 2 µM)
Put shortly:
as §1

This passage reports relative viability results from the supplement of paper PMC10307832.

For NCI-H460, the relative viability in the assay with Metformin + Foretinib (first compound 10 µM) worked out at 0.949; with Metformin + Foretinib (first compound 31.62 µM), 0.998; with Metformin + Foretinib (first compound 100 µM), 0.961; with Metformin + Foretinib (first compound 316.23 µM), 1.02; with Metformin + Foretinib (first compound 1000 µM), 1.03; with Metformin + Alpelisib (first compound 31.62 µM) it was 0.471. The relative viability in the assay with Metformin + Alpelisib (first compound 100 µM) was 0.534; with Metformin + Alpelisib (first compound 316.23 µM) it was 0.502; in the assay with Metformin + Alpelisib (first compound 1000 µM), 0.471; with Metformin + Decitabine (first compound 31.62 µM) it was 0.444; in the assay with Metformin + Decitabine (first compound 100 µM) it was 0.493; with Metformin + Decitabine (first compound 316.23 µM), 0.412. Also, the relative viability with Metformin + Decitabine (first compound 1000 µM) was determined as 0.469; with Apatinib + Lapatinib (first compound 0.08 µM), 0.915; in the assay with Apatinib + Lapatinib (first compound 0.253 µM), 0.93; with Apatinib + Lapatinib (first compound 0.8 µM), 0.796; with Apatinib + Lapatinib (first compound 2.53 µM) it was 0.905; in the assay with Apatinib + Lapatinib (first compound 8 µM) it was 0.777.
